The source of these data is patent publication US20130236568A1, “PHOSPHAPLATINS HAVING ANTI-ANGIOGENIC, ANTI-METASTATIC, AND PRO-APOPTOTIC PROPERTIES AND USES THEREOF” (Ohio University, priority 2011, published 2013).

Format in all cases: cell-based, human
Experiment [1] has as its system PUMA. Kind of experiment: Expression of key genes with and without p53 inhibitor (Table 3): PUMA. The note with it: positive = manifold increase, negative = decrease vs untreated cells. How it is done: (§1) Quantitative real-time PCR experiments were performed to estimate the expression of a selection of targeted genes. HUVEC cells (Lonza Walkersville, Frederick, Md.) were cultured on 0.1% gelatin-coated petri dishes by following standard protocols recommended by the vendor in a humidified incubator by maintaining 5% CO2 at 37° C. Human epithelial ovarian cancer cells (A2780) and cisplatin-resistant cells (A2780/C30) were cultured in RPMI 1640 with or without cisplatin (7 μM) and pyrodach-4 (180 μM) for 0, 3, 12 and 24 hours. […] HUVECs were treated with or without cisplatin (7 μM) or pyrodach-4 (90 or 180 μM) for various durations ranging from 1 hr. to 6 hrs.
(§2) Both treated and untreated cancer cells were maintained in RPMI 1640 medium with 10% fetal bovine serum, 2 μmol L-glutamine, 100 units/mL penicillin-streptomycin and 0.25 units/mL insulin solution, at 37° C. with 5% CO2. RNA was isolated from both the treated and untreated cells. […] The quantity and purity of RNA were determined by UV spectroscopy (NanoDrop 2000 Thermo Scientific, Wilmington, Del.). A minimum absorbance ratio index (ratio of the absorbance measured at 260 nm over that at 280 nm) of 1.9 was used as an acceptable purity. […] The target gene was labeled with a blue dye (FAM, absorbance: 494 nm, emission: 518 nm) while the reference gene was tagged with a green dye (VIC, absorbance: 538 nm, emission: 554 nm). […]

For experiment [2], the system named is BID. The experiment in a line: Expression of key genes with and without p53 inhibitor (Table 3): BID. Particulars: positive = manifold increase, negative = decrease vs untreated cells. On the procedure: as §1, §2
Experiment [3] has as its system caspase-9. Kind of experiment: Quantitative real-time PCR, caspase-9 expression in HUVEC. Particulars: HUVEC treated with pyrodach-4. On the procedure: (§3) Evaluations of selected gene expressions in Human Umbilical Vein Endothelial Cells (HUVEC) and Human Ovarian Cancer Cells by quantitative reverse transcriptase polymerase chain reaction (PCR)
(§4) Quantitative real-time PCR experiments were performed to estimate the expression of a selection of targeted genes. HUVEC cells (Lonza Walkersville, Frederick, Md.) were cultured on 0.1% gelatin-coated petri dishes by following standard protocols recommended by the vendor in a humidified incubator by maintaining 5% CO2 at 37° C. […]
as §2, with “CO2.” for “CO2. RNA was isolated from both the treated and untreated cells.”
(§5) The threshold cycle number (Ct), the point at which the fluorescence of the qPCR reaction just exceeds the threshold fluorescence of the detection system, was determined. […]
A general note: Real-time PCR tracks product formation cycle by cycle.

Experiment [4] has as its system caspase-3. Kind of experiment: Quantitative real-time PCR, caspase-3 expression in HUVEC. Particulars: HUVEC treated with pyrodach-4. On the procedure: as §3, §4
as §2, with “CO2.” for “CO2. RNA was isolated from both the treated and untreated cells.”
as §5

Experiment [5] deals with Fas. Kind of experiment: Quantitative real-time PCR, Fas expression in HUVEC. The note with it: HUVEC treated with pyrodach-4. On the procedure: as §3, §4
as §2, with “CO2.” for “CO2. RNA was isolated from both the treated and untreated cells.”
as §5

Experiment [6] has as its system BAX. Kind of experiment: Quantitative real-time PCR, Bax expression in HUVEC. Particulars: HUVEC treated with pyrodach-4. How it is done:
as §3, §4
as §2, with “CO2.” for “CO2. RNA was isolated from both the treated and untreated cells.”
as §5

Experiment [7] relates to BAX. Kind of experiment: Expression of key genes with and without p53 inhibitor (Table 3): BAX. Particulars: positive = manifold increase, negative = decrease vs untreated cells. How it is done:
as §1, §2

Experiment [8] deals with p53. Kind of experiment: Expression of key genes with and without p53 inhibitor (Table 3): p53. Particulars: positive = manifold increase, negative = decrease vs untreated cells. How it is done:
as §1, §2

With “trans-(±)-1,2-cyclohexanediamine-trans-dihydroxo(pyrophosphato) platinum(IV) [Pyrodach-4]”, the “Expression of PUMA” value in experiment [1] (Pyrodach-4 + PFT-α) came out at 4.4; in experiment [1] (Pyrodach-4 treatment only), 16.6. Besides, the “Expression of BID” value in experiment [2] (Pyrodach-4 + PFT-α) worked out at 1.0; in experiment [2] (Pyrodach-4 treatment only) it was 1.8. The “Over-expression of caspase-9” value in experiment [3] is 2-3 fold. The “Over-expression of caspase-3” value in experiment [4] is 2-3 fold. Moreover, the “Over-expression of Fas” value in experiment [5] is recorded as 2-5 fold. For the same substance, the “Over-expression of Bax” value in experiment [6] is 2-3 fold. In addition, the “Expression of BAX” value in experiment [7] (Pyrodach-4 + PFT-α (p53 inhibitor)) came to 1.0; in experiment [7] (Pyrodach-4 treatment only, cell line not given), 2.8. Moreover, the “Expression of p53” value in experiment [8] (Pyrodach-4 + PFT-α) was 2.1; in experiment [8] (Pyrodach-4 treatment only) it was 1.8.
